# Reference: US9085576B2 (AMGEN INC., priority 2013, dated 2015)
# Experiments:
# Cathepsin D (Cat D) = Cathepsin D (Cat D) (Homo sapiens (Human), UniProt P07339); test: In vitro enzymatic Cathepsin D (Cat D) FRET assay; assay type: biochemical; settings: read-out: CatD IC50
# BACE = BACE (Homo sapiens (Human), UniProt P56817); test: In vitro BACE cell-based assay (Aβ40 in conditioned medium, sandwich ELISA)
# [1] = target: Beta Secretase enzyme (BACE) (Homo sapiens (Human), UniProt P56817); test: In vitro enzymatic BACE FRET assay; assay type: biochemical; settings: read-out: BACE1 Enzyme assay IC50
# Chain of Beta Secretase enzyme (BACE) (P56817 46-501): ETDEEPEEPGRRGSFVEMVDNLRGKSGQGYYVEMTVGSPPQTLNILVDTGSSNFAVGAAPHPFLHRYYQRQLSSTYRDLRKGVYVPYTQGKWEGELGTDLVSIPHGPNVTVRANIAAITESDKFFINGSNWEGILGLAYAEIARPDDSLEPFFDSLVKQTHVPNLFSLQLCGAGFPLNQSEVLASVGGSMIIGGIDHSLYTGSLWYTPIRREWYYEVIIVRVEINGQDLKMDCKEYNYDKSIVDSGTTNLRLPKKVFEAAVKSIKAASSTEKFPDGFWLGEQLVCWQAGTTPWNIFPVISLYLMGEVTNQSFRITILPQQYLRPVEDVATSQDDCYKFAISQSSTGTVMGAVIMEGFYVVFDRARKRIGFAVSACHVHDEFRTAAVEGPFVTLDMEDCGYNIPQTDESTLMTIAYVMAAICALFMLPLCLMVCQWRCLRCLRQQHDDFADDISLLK
# Chain of BACE (P56817 46-501, species assumed): as the sequence (P56817 46-501) above
# Chain of Cathepsin D (Cat D) (P07339 65-412, species assumed): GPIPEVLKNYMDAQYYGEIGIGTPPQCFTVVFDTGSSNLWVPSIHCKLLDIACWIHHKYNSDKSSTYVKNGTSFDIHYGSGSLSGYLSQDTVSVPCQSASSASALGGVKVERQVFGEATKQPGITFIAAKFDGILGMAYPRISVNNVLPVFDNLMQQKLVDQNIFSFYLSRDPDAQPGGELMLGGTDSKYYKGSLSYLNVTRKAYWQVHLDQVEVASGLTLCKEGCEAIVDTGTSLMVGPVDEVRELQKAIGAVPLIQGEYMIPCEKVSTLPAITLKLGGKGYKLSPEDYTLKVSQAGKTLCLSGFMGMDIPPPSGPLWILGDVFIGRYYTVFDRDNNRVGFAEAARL
SMILES,IC50 (Cathepsin D (Cat D)),IC50 (BACE),IC50 [1]
"COc1cnc(C(=O)Nc2cc(F)c(F)c([C@@]3(CF)N=C(N)O[C@@H]4C[C@@H]43)c2)cn1 [Example 143, N-(3-((1R,5S,6R)-3-amino-5-(fluoromethyl)-2-oxa-4-azabicyclo[4.1.0]hept-3-en-5-yl)-4,5-difluorophenyl)-5-methoxypyrazine-2-carboxamide]",529 µM,0.0221 µM,0.125 µM
"COc1cnc(C(=O)Nc2cc(F)c(F)c([C@]3(CF)N=C(N)O[C@H]4C[C@H]43)c2)cn1 [Example 144, N-(3-((1S,5R,6S)-3-amino-5-(fluoromethyl)-2-oxa-4-azabicyclo[4.1.0]hept-3-en-5-yl)-4,5-difluorophenyl)-5-methoxypyrazine-2-carboxamide]",1340 µM,4.62 µM,> 40 µM
"CC(C)Oc1cnc(C(=O)Nc2ccc(F)c([C@@]3(C(F)F)N=C(N)O[C@@H]4C[C@@H]43)c2)cn1 [Example 147, N-(3-((1R,5S,6R)-3-amino-5-(difluoromethyl)-2-oxa-4-azabicyclo[4.1.0]hept-3-en-5-yl)-4-fluorophenyl)-5-isopropoxypyrazine-2-carboxamide]",706 µM,1 µM,0.732 µM
"NC1=N[C@@](c2cc(NC(=O)c3csc(C(F)F)n3)ccc2F)(C(F)F)[C@H]2C[C@H]2O1 [Example 149, N-(3-((1R,5S,6R)-3-amino-5-(difluoromethyl)-2-oxa-4-azabicyclo[4.1.0]hept-3-en-5-yl)-4-fluorophenyl)-2-(difluoromethyl)thiazole-4-carboxamide]",1700 µM,0.152 µM,0.195 µM
"NC1=N[C@@](c2cc(NC(=O)c3coc(C(F)F)n3)ccc2F)(C(F)F)[C@H]2C[C@H]2O1 [Example 150, N-(3-((1R,5S,6R)-3-amino-5-(difluoromethyl)-2-oxa-4-azabicyclo[4.1.0]hept-3-en-5-yl)-4-fluorophenyl)-2-(difluoromethyl)oxazole-4-carboxamide 2,2,2-trifluoroacetate]",238 µM,0.0182 µM,0.0322 µM
"NC1=N[C@@](c2cc(NC(=O)c3coc(C#CC4CC4)n3)ccc2F)(C(F)F)[C@H]2C[C@H]2O1 [Example 151, N-(3-((1R,5S,6R)-3-amino-5-(difluoromethyl)-2-oxa-4-azabicyclo[4.1.0]hept-3-en-5-yl)-4-fluorophenyl)-2-(cyclopropylethynyl) oxazole-4-carboxamide]",302 µM,1.07 µM,24.8 µM
"Cn1nc(C(F)F)cc1C(=O)Nc1ccc(F)c([C@@]2(C(F)F)N=C(N)O[C@@H]3C[C@@H]32)c1 [Example 154, N-(3-((1R,5S,6R)-3-amino-5-(difluoromethyl)-2-oxa-4-azabicyclo[4.1.0]hept-3-en-5-yl)-4-fluorophenyl)-3-(difluoromethyl)-1-methyl-1H-pyrazole-5-carboxamide]",515 µM,0.109 µM,0.24 µM
COc1cnc(C(=O)Nc2cc(F)c(Cl)c([C@]3(CF)N=C(N)O[C@H]4C[C@H]43)c2)cn1 [Example 155],647 µM,> 15.6 µM,> 40 µM
"COc1cnc(C(=O)Nc2cc(F)c(Cl)c([C@@]3(CF)N=C(N)O[C@@H]4C[C@@H]43)c2)cn1 [Example 156, N-(3-((1R,5S,6R)-3-amino-5-(fluoromethyl)-2-oxa-4-azabicyclo[4.1.0]hept-3-en-5-yl)-4-chloro-5-fluorophenyl)-5-methoxypyrazine-2-carboxamide]",897 µM,0.0199 µM,0.055 µM
"Cc1cc(OC(F)F)cnc1C(=O)Nc1cc(F)c(Cl)c([C@]2(CF)N=C(N)O[C@H]3C[C@H]32)c1 [Example 157, N-(3-((1S,5R,6S)-3-amino-5-(fluoromethyl)-2-oxa-4-azabicyclo[4.1.0]hept-3-en-5-yl)-4-chloro-5-fluorophenyl)-5-(difluoromethoxy)-3-methylpicolinamide]",396 µM,> 15.6 µM,28.3 µM
